Structures are written as SMILES.

Data set [1] relates to mice exposed to hypoxia in hermovolume. In words: Hypoxia with hypercapnia in hermovolume. In kind it is in vivo. As for the experimental part: White nondescript male mice with body weight 22-28 g were used in the experiments. Each dose level was studied in 10 animals. Control animals received equivalent volume of distilled water. Nooglutyl was used as reference agent. Study compounds were administered intraperitoneally 40 minutes before the experiment.
Acute hypobaric hypoxia was simulated in flow-exhaust chamber. Pressure was measured with altimeter, and elevation speed with variometer. The animals were “elevated” at the speed 20 m/s to the stage at 11000 m. The exposure lasted 10 minutes. Then the animals were mover down to the baseline level for 5 minutes. Hypoxia with hypercapnia in hermovolume was created by placement of the animal into 200 ml hermetically sealed glass vessels. Life period of the animals under hypoxic conditions was recorded. Each group comprised 10 animals.

The subject of the next data set is aged rats (24 months). In words: Passive avoidance response in aged rats (24 months). In kind it is in vivo. The following applies: 20 mg/kg 60 days, PAR reproduction 24 hours after learning; for Number of the rats, which did not entry dark chamber (%): 20 mg/kg. As to the method:
White nondescript male rats (Wistar line): to adult animals at age 3 months with body weight 250-300 g and aged 24 month old animals with body weight 350-450 g were used in the study. Nooglutyl at dose level 20 mg/kg and Compound I were administered to aged rats intraperitoneally for 2 months followed by assessment of the effect on learning capacity impaired by age and neurological deficit. Analysis of variance with Student's test, variant portion method and U-test were employed for data processing.
Impact of Compound I on memory disorders in aged animals. To develop passive avoidance response (PAR) in rats the unit supplied by Lafayette Instrument Co., (USA) (Ader et al. Retention of a passive avoidance response as a function of the intensity and duration of electric shock. Psycho Sci. 1972, v. 26, p. 125-128; Voronina T. A. et al. “Textbook for Experimental (Preclinical Study) of novel pharmacological compounds”. Moscow, Medicina. 2005, p. 253-263 and 308-320) was used. […] Animals preferring illuminated platform were not used in this experiment. In the dark chamber the animal received single pain stimulus with electric current (0.45 mA), duration of the stimulus was determined from the running out of the animal from the dark chamber.

For data set [2], the system named is mice SAM P 10. The data set is described as follows: Antidepressant activity: forced swimming in mice SAM. In kind it is in vivo. Particulars: first 6 minutes of forced swimming. As for the experimental part: Exp. Gerontolol. 1997, […]. et al. Age-related deterioration in conditional avoidance task in the SAM-P/10 mouse, an animal model of spontaneous brain atrophy. Brain Res., 1993, v. 608, p. 266-272). To assess depressive condition the method of forced swimming was used (Porsolt R. D. et al., Behavioral despair in rats: a new model sensitive to antidepressant treatment. Europ. J. […] The mice were placed into cylinder 10 cm in diameter and 25 cm height. Cylinder was filled with water by 1⁄3 (27° C.). After unsuccessful attempts to get out of the water the animals have typical immovable posture, which is regarded as manifestation of “despair”.

The subject of data set [3] is mice SAM P 10. In words: Anxiolytic activity: elevated criss-cross labyrinth in mice SAM P10. In kind it is in vivo. The following applies: 5 minutes observation. The text has this: (Takeda T. et al. Senescence-Accelerated Mouse (SAM): A novel murine model of accelerated senescence. J. Amer. Geriatr. Soc. 1991, v. 39, p. 911-919). The animals belonging to this line are characterized by genetically determined depression and impairment of learning capacity, these symptoms intensively aggravate since 6 months of age (accelerated senescence) (Miyamoto M., Characteristics of age-related behavioral changes in senescence-accelerated mouse SAMP8 and SAMP10. Exp. Gerontolol. 1997, v. 32, p. 139-148; Shimada A. et al. Age-related deterioration in conditional avoidance task in the SAM-P/10 mouse, an animal model of spontaneous brain atrophy. Brain Res., 1993, v. 608, p. 266-272). Assessment of anxiety level of the mice was carried out under conditions of “elevated criss-cross labyrinth” (ECCL) method (Pellow S. et al. Validation of open:closed arm entries in elevated plus-maze as a measure of anxiety in the rat. Neurosci Meth J. 1985, No 14, p. 149-167; Voronina T. A. et al. “Textbook for Experimental (Preclinical Study) of novel pharmacological compounds”. Moscow, Medicina. 2005, p. 253-263). Labyrinth comprises crossed bands 5×45 cm, with two opposed compartments having vertical walls 30 cm height (closed, dark arms), and two other compartments are open, light arms. Labyrinth is situated 30 cm above the floor. Central platform […] is located at the cross of the planes. The mice were placed on the central platform with their tails directed to light arm. Time spent by the animals in open and closed arms, and the number of entering light and dark arms was registered. Total observation period comprised 5 minutes for each animal. Time spent in the open arms of the unit was considered as the measure of anxiolytic effect.

The subject of data set [4] is white nondescript male mice. The data set is described as follows: in vivo. The following applies: white nondescript (outbred), mouse, ip, 2 days. As to the method: The study of acute daily toxicity of Compound I was carried out on white nondescript male mice with body weight 25-28 g, which lived in habitual conditions in vivarium and received feed and water ad libitum. Single dose of Compound I was administered intraperitoneally. The animals were under observation for 2 days after the dosing. The dose levels of Compound I used in the toxicity study were as follows: 800 mg/kg, 1000 mg/kg, 1200 mg/kg, 1500 mg/kg, 1600 mg/kg. Compound I was dissolved in distilled water and administered in 0, 1 ml per 10 g of the body weight of the animal when the doses 800 mg/kg and 1000 mg/kg, and in 0.2 ml per 10 g of the body weight when the doses 1200 mg/kg, 1500 mg/kg, 1600 mg/kg were used. Control animals received distilled water in the volume 0.2 ml per 10 g of the body weight.
Each dose group comprised 10 animals.

[5] abbreviates: 30 mg/kg intraperitoneally 40 minutes before the experiment.
Setting [6] is: 60 mg/kg intraperitoneally 40 minutes before the experiment.
Where [7] appears, read: 120 mg/kg intraperitoneally 40 minutes before the experiment.

`O=C([O-])CC[C@H](NC(=O)c1cncc(O)c1)C(=O)[O-].[Ca+2]` [Compound I, Calcium N-(5-hydroxynicotinoyl)-L-glutamate]: in data set [1] (setting [5]), the “Life interval of mice (minutes) exposed to hypoxia in hermovolume” value (shortened to “Life interval of mice (minutes) exposed”) was determined as 16.2 ± 0.31 min. Also, in data set [1] (setting [6]), the “Life interval of mice (minutes) exposed” value was determined as 17.8 ± 0.41 min. For the same compound, the “Life interval of mice (minutes) exposed” value in data set [1] (setting [7]) turned out to be 18.1 ± 0.48 min. In addition, in the data set on aged rats (24 months), the “Latent period of entry to dark chamber (c)” value stood at 96.9 ± 16.1 c and the “Number of the rats, which did not entry dark chamber (%)” value came out at 60%. Moreover, in the data set on mice SAM P 10 [2] (10 mg/kg), the “Period of active behaviour” value stood at 190.00 ± 9.50 s. For the same compound, the “Period of active behaviour” value with mice SAM P 10 [2] (20 mg/kg) is 225.00 ± 10.97 s. Moreover, in the data set on mice SAM P 10 [3] (5 mg/kg), the “Number of entries the closed arms” value was 15.6 ± 2.1, the “Number of entries the opened arms” value amounted to 5.7 ± 0.6, the “Time spent in the closed arms (c)” value stood at 247.0 ± 6.4 c and the “Time spent in the opened arms (c)” value is 21.1 ± 4.6 c. In the data set on mice SAM P 10 [3] (10 mg/kg), the “Number of entries the closed arms” value turned out to be 20.51 ± 3.1, the “Number of entries the opened arms” value came to 7.7 ± 0.2, the “Time spent in the closed arms (c)” value came to 262.0 ± 22.1 c and the “Time spent in the opened arms (c)” value is 23.9 ± 5.8 c. For the same compound, in the data set on mice SAM P 10 [3] (20 mg/kg), the “Number of entries the closed arms” value came to 19.3 ± 2.5, the “Number of entries the opened arms” value was determined as 13.0 ± 1.1, the “Time spent in the closed arms (c)” value came out at 234.8 ± 8.7 c and the “Time spent in the opened arms (c)” value turned out to be 28.4 ± 6.2 c. In data set [4], this compound showed an LD16 of 900 mg/kg and an LD84 of 1450 mg/kg.

Regarding `O=C(O)CC[C@H](NC(=O)c1cncc(O)c1)C(=O)O` [Nooglutyl, N-(5-hydroxynicotinoyl)-L-glutamic acid, reference compound], the “Life interval of mice (minutes) exposed” value came out at 13.9 ± 0.42 min in data set [1] (setting [5]), 15.2 ± 0.39 min in data set [1] (setting [6]) and 16.4 ± 0.53 min in data set [1] (setting [7]). In addition, in the data set with aged rats (24 months), the “Latent period of entry to dark chamber (c)” value stood at 97.1 ± 20.3 c. In the data set with aged rats (24 months), the “Number of the rats, which did not entry dark chamber (%)” value is listed as 60%.
